Test results published in ChEMBL document CHEMBL1125295, “Synthesis and some pharmacological properties of potent and selective antagonists of the vasopressor (V1-receptor) response to arginine-vasopressin” (J Med Chem, 1992).
*1 amine or outer side, *2 acyl side, *3 side chain or, on linkers, in order; H or OH if unused. Where a SMILES comes first, the peptide text is derived from it. Bridges are numbered along the chain shown (N, C = ends). [ ]: non-standard residue; d: D form. NMeY = CN[C@@H](Cc1ccc(O)cc1)C(=O)O; X1 = O=C(CC1(S[*:2])CCCCC1)[*:1]

How the values were obtained:
[1] = Ratio of antidiuretic V2 effective dose to that of vasopressin V1 effective dose; type: functional, Urine
[2] = molecular target: Vasopressin V1 receptor (Rattus norvegicus) (UniProt P48974+P30560); experiment: Dose that reduces blood pressure response in rats; type: functional
[3] = molecular target: Vasopressin V2 receptor (Rattus norvegicus) (UniProt Q00788); experiment: Dose that reduces urine flow in water-loaded rats; type: functional
[4] = molecular target: Vasopressin V2 receptor (Rattus norvegicus) (UniProt Q00788); experiment: Antidiuretic activity in water-loaded rats

Sequence of Vasopressin V2 receptor (Rattus norvegicus) (Q00788 whole entry): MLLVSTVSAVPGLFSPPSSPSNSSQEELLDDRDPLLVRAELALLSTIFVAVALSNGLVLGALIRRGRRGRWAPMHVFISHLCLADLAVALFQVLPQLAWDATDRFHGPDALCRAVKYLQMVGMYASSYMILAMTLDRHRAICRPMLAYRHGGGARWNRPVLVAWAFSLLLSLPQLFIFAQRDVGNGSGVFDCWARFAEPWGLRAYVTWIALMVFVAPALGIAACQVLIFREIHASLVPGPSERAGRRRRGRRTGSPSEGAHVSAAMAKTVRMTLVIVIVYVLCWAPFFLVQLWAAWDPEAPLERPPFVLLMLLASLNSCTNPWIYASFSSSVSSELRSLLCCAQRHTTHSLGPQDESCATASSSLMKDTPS
Sequence of Vasopressin V1 receptor (Rattus norvegicus) (P30560 whole entry, looked up): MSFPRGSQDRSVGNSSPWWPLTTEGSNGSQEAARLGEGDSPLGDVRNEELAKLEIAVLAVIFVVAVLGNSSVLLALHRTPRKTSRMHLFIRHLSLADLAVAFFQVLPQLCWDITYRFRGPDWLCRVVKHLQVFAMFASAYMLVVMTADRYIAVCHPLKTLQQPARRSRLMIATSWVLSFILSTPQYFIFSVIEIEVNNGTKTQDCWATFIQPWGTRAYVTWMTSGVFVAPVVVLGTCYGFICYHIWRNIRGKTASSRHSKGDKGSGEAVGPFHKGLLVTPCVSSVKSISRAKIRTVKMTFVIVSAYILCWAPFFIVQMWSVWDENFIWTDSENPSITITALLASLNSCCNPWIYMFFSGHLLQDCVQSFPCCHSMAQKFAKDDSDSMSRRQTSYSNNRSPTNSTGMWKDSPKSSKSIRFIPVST
Sequence of Vasopressin V1 receptor (Rattus norvegicus) (P48974 whole entry, looked up): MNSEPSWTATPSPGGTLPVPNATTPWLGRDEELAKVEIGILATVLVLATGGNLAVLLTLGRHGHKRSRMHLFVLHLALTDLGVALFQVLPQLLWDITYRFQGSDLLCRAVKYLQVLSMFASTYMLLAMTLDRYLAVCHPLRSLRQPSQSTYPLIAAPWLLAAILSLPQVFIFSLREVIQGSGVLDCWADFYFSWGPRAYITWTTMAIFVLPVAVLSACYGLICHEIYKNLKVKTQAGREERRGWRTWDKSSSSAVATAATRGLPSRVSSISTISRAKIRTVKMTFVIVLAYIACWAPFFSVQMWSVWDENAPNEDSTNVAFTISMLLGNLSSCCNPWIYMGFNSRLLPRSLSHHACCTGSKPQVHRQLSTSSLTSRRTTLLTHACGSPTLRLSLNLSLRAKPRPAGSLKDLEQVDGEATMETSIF

| Effective dose [3] [nM/kg] | Antidiuretic activity [4] [units/mg] | SMILES | Ratio [1] | Effective dose [2] [nM/kg] |
| --- | --- | --- | --- | --- |
| 18 |  | CN1C(=O)CC2(CCCCC2)SSC[C@H](C(=O)N2CCC[C@H]2C(=O)N[C@@H](CCCN=C(N)N)C(=O)N[C@@H](CCCN=C(N)N)C(N)=O)NC(=O)[C@@H](CC(N)=O)NC(=O)[C@H](CCC(N)=O)NC(=O)[C@@H](Cc2ccccc2)NC(=O)[C@@H]1Cc1ccc(O)cc1 | ~150 | 0.12 |
|  | 0.039 | CC(C)[C@H](NC(=O)[C@H](CCCN=C(N)N)NC(=O)[C@@H]1CCCN1C(=O)[C@H]1CSSC(C)(C)CC(=O)N(C)[C@@H](Cc2ccc(O)cc2)C(=O)N[C@H](Cc2ccccc2)C(=O)N[C@@H](CCC(N)=O)C(=O)N[C@H](CC(N)=O)C(=O)N1)C(N)=O |  | 0.6 |
|  | 0.083 | CN1C(=O)CC(C)(C)SSC[C@H](C(=O)N2CCC[C@H]2C(=O)N[C@@H](CCCN=C(N)N)C(=O)N[C@@H](CCCN=C(N)N)C(N)=O)NC(=O)[C@@H](CC(N)=O)NC(=O)[C@H](CCC(N)=O)NC(=O)[C@@H](Cc2ccccc2)NC(=O)[C@@H]1Cc1ccc(O)cc1 |  |  |
|  | 0.029 | CN1C(=O)CC(C)(C)SSC[C@H](C(=O)N2CCC[C@H]2C(=O)N[C@@H](CCCN=C(N)N)C(=O)N[C@@H](Cc2ccc(O)cc2)C(N)=O)NC(=O)[C@@H](CC(N)=O)NC(=O)[C@H](CCC(N)=O)NC(=O)[C@@H](Cc2ccccc2)NC(=O)[C@@H]1Cc1ccc(O)cc1 |  | 0.38 |
| 16 |  | CN1C(=O)CC2(CCCCC2)SSC[C@H](C(=O)N2CCC[C@H]2C(=O)N[C@@H](CCCN=C(N)N)C(=O)NCC(=O)NCCN)NC(=O)[C@@H](CC(N)=O)NC(=O)[C@H](CCC(N)=O)NC(=O)[C@@H](Cc2ccccc2)NC(=O)[C@@H]1Cc1ccc(O)cc1 |  | 0.27 |
| 77 |  | C[C@H](NC(=O)[C@H](CCCN=C(N)N)NC(=O)[C@@H]1CCCN1C(=O)[C@H]1CSSC2(CCCCC2)CC(=O)N(C)[C@@H](Cc2ccc(O)cc2)C(=O)N[C@H](Cc2ccccc2)C(=O)N[C@@H](CCC(N)=O)C(=O)N[C@H](CC(N)=O)C(=O)N1)C(N)=O |  | 0.13 |
|  | 0.31 | CN1C(=O)CC2(CCCCC2)SSC[C@H](C(=O)N2CCC[C@H]2C(=O)N[C@@H](CCCN=C(N)N)C(=O)NCC(N)=O)NC(=O)[C@H](CC(N)=O)NC(=O)[C@H](CCC(N)=O)NC(=O)[C@H](Cc2ccccc2)NC(=O)[C@@H]1Cc1ccc(O)cc1 ([NMeY]FQN[dC]PRG-NH2; linker N-5 via X1) |  | 0.16 |
